What is called inhibition is how much of the control response was suppressed.

The text below walks through data of patent US8552002B2 (Novartis AG, priority 2004, dated 2013).

What all share (format): biochemical
One assay concerns the target T1, KDR (Homo sapiens, UniProt P35968).
T1 construct: expressed in transfected cells; host or cells: CHO cells
Nature of the assay: Inhibitory activity against KDR (VEGF-R2), in vitro data of Examples 170 and 207. The conditions noted are these: 10 μM; Examples 1 to 169; read-out: KDR inhibition at 10 μM. As for the experimental part: (Controls comprise medium without test compounds). After two hours of incubation at 37° C., recombinant VEGF is added; the final VEGF concentration is 20 ng/ml. After a further five minutes incubation at 37° C., the cells are washed twice with ice-cold PBS (phosphate-buffered saline) and immediately lysed in 100 μl lysis buffer per well. The lysates are then centrifuged to remove the cell nuclei, and the protein concentrations of the supernatants are determined using a commercial protein assay (BIORAD). The lysates can then either be immediately used or, if necessary, stored at −20° C. […] The plates are then washed and the remaining free protein-binding sites are saturated with 3% TopBlock® (Juro, Cat. # TB232010) in phosphate buffered saline with Tween 20® (polyoxyethylen(20)sorbitane monolaurate, ICI/Uniquema) (PBST). The cell lysates (20 μg protein per well) are then incubated in these plates overnight at 4° C. together with an antiphosphotyrosine antibody coupled with alkaline phosphatase (PY20:AP from Zymed). […] The luminescence is measured in a Packard Top Count Microplate Scintillation Counter.

In the next assay the target is T2, FGFR3 (K650E) (Homo sapiens, UniProt P22607, K650E).
T2 construct: amino acids 411-806 of the cytoplasmic domain of human FGFR-3, N-terminally fused to GST; made in house; host or cells: Sf9 insect cells (baculovirus)
T2 sequence (P22607 411-806 K650E): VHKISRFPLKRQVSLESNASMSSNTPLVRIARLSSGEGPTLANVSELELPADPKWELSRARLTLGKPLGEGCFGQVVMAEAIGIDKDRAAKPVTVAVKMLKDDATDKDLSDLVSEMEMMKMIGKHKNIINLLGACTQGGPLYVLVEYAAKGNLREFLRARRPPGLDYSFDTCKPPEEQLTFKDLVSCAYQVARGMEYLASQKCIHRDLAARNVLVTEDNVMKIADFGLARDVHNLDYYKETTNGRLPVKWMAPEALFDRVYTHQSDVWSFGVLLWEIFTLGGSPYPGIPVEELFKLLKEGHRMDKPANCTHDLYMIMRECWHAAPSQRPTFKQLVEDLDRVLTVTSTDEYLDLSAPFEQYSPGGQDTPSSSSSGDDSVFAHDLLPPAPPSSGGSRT
As to the kind of experiment: Recombinant GST-FGFR-3-K650E tyrosine kinase assay (33P into poly(Glu,Tyr)). The conditions noted are these: 10 μM; Examples 1 to 169; read-out: FGFR3 (K650E) inhibition at 10 μM.

The target of a further assay is T3, Tek (Homo sapiens, UniProt Q02763).
T3 construct: amino acids 773-1124 of the cytoplasmic kinase domain of human Tek, N-terminally fused to GST; made in house; host or cells: Sf9 insect cells (baculovirus)
T3 sequence (Q02763 773-1124): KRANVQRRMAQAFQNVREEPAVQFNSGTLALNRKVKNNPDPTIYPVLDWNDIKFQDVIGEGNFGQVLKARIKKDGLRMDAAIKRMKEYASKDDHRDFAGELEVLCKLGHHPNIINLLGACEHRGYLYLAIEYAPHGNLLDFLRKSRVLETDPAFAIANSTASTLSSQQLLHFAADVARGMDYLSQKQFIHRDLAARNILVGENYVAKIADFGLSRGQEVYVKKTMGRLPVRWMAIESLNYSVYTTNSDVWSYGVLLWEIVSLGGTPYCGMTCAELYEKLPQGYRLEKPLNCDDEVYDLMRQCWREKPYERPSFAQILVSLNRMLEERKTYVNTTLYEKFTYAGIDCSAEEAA
Nature of the assay: Recombinant GST-Tek (Tie-2) tyrosine kinase assay (33P into poly(Glu,Tyr)). Conditions: Examples 1 to 169. The source says: (Tie-2/Tek): The baculovirus donor vector pFbacG01 was used to generate a recombinant baculovirus that expressed the amino acid region amino acids 773-1124 of the cytoplasmic kinase domain of human Tek, N-terminally fused to GST (Provided by Dr. Marmé, Institute of Molecular Medicine, Freiburg, Germany based on a Research Collaboration). Tek was recloned into the pFbacG01 transfer vector by EcoRI excision and ligation into EcoRI digested pFbacG01 (FBG-Tie2/Tek).
Production of virus: Transfer vectors containing the kinase domains were transfected into the DH10Bac cell line (GIBCO) and plated on selective agar plates. Colonies without insertion of the fusion sequence into the viral genome (carried by the bacteria) are blue. Single white colonies were picked and viral DNA (bacmid) isolated from the bacteria by standard plasmid purification procedures. Sf9 cells or Sf21 cells were then transfected in 25 cm^2 flasks with the viral DNA using Cellfectin reagent.
Determination of small scale protein expression in Sf9 cells: Virus containing media was collected from the transfected cell culture and used for infection to increase its titer. Virus containing media obtained after two rounds of infection was used for large-scale protein expression. For large-scale protein expression 100 cm^2 round tissue culture plates were seeded with 5×10^7 cells/plate and infected with 1 mL of virus-containing media (approx. 5 MOIs). After 3 days the cells were scraped off the plate and centrifuged at 500 rpm for 5 min. Cell pellets from 10-20, 100 cm^2 plates, were resuspended in 50 mL of ice-cold lysis buffer (25 mMTris-HCl, pH7.5, 2 mMEDTA, 1% NP-40, 1 mM DTT, 1 mMP MSF). The cells were stirred on ice for 15 min and then centrifuged at 5000 rpms for 20 min.
Purification of GST-tagged proteins: The centrifuged cell lysate was loaded onto a 2 mL glutathione-sepharose column and washed three times with 10 mL of 25 mM Tris-HCl, pH 7.5, 2 mM EDTA, 1 mM DTT, 200 mM NaCl. The GST-tagged proteins were then eluted by 10 applications (1 mL each) of 25 mM Tris-HCl, pH 7.5, 10 mM reduced-glutathione, 100 mM NaCl, 1 mM DTT, 10% Glycerol and stored at −70° C.
Measure of enzyme activity: Tyrosine protein kinase assays with either purified GST-Ret, GST-Tek or GST-FGFR-3-K650E were carried out in a final volume of 30 μL with final concentrations of the following components: Ret included 15 ng of GST-Ret, 20 mM Tris-HCl, pH 7.5, 1 mM MnCl2, 10 mM MgCl2, 1 mM DTT, 3 μg/mL poly(Glu,Tyr) 4:1, 1% DMSO and 2.0 μM ATP (γ-[^33P]-ATP 0.1 μCi). Tek included 150 ng of GST-Tek, 20 mM Tris-HCl, pH 7.5, 3 mM MnCl2, 3 mM MgCl2, 1 mM DTT, 0.01 mM Na3VO4, 250 μg/mL PEG 20'000, 10 μg/mL poly(Glu,Tyr) 4:1, 1% DMSO and 4.0 μM ATP (γ-[^33P]-ATP 0.1 μCi). FGFR-3-K650E included 10 ng of GST-FGFR-3-K650E, 20 mM Tris-HCl, pH 7.5, 3 mM MnCl2, 3 mM MgCl2, 1 mM DTT, […], 10 μg/mL poly(Glu,Tyr) 4:1, 1% DMSO and 4.0 μM ATP (γ-[^33P]-ATP 0.1 μCi).The activity was assayed in the presence or absence of inhibitors, by measuring the incorporation of ^33P from [γ^33P] ATP into poly(Glu,Tyr) 4:1. The assay was carried out in 96-well plates at ambient temperature for 30 min under conditions described below and terminated by the addition of 50 μL of 125 mM EDTA. Subsequently, 60 μL of the reaction mixture were transferred onto Immobilon-PVDF membrane (Millipore) previously soaked for 5 min with methanol, rinsed with water, then soaked for 5 min with 0.5% H3PO4 and mounted on vacuum manifold with disconnected vacuum source. After spotting all samples, vacuum was connected and each well rinsed with 200 μL 0.5% H3PO4. Membranes were removed and washed 4× on a shaker with 1.0% H3PO4, once with ethanol. Membranes were counted after drying at ambient temperature, mounting in Packard TopCount 96-well frame, and addition of 10 μL/well of Microscint™ (Packard). […]

T1 sequence (P35968 20-1356): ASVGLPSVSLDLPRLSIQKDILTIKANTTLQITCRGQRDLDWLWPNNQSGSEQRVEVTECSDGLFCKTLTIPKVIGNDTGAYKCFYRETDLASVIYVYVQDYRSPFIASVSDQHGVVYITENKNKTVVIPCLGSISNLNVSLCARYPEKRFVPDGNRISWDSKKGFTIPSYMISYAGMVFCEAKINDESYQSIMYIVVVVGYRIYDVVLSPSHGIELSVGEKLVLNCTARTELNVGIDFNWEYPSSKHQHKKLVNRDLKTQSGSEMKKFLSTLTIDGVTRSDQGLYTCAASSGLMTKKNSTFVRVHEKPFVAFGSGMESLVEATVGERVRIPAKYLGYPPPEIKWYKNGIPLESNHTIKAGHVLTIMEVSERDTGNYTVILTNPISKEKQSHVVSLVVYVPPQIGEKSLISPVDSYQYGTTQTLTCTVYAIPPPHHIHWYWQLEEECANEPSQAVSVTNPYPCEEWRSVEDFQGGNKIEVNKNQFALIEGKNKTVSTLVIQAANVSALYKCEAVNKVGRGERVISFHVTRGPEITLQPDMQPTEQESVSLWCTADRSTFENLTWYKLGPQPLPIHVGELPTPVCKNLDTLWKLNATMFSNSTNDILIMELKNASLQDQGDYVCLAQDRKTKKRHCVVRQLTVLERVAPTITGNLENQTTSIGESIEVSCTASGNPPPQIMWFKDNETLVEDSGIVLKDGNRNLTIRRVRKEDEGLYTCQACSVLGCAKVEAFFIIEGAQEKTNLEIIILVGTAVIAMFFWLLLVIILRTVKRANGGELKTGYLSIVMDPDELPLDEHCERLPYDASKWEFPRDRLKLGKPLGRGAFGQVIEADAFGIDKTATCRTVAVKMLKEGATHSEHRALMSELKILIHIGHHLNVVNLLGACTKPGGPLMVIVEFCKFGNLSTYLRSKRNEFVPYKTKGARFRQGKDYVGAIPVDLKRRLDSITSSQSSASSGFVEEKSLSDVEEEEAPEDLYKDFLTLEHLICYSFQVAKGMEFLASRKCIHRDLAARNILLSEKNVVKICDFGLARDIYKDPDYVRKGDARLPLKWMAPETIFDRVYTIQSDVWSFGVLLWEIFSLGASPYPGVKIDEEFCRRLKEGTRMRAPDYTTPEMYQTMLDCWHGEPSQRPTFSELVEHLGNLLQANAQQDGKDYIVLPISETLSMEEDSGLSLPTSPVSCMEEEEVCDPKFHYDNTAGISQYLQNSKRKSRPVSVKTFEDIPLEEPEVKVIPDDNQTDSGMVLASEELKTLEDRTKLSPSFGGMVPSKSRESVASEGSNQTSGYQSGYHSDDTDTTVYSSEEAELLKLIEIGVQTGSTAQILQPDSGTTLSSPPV

`COc1ccc(NC(=O)Nc2cc(Nc3ccc(N4CCN(C)CC4)cc3)ncn2)cc1OC` [Example 30, 1-(3,4-Dimethoxy-phenyl)-3-{6-[4-(4-methyl-piperazin-1-yl)-phenyl-amino]-pyrimidin-4-yl}-urea]: the inhibition at 10 µM on KDR lay in the range of 67 to 100%; on FGFR3 (K650E), 27 to 100%; at Tek it was 12 to 100%.

Regarding `COc1cc(OC)c(Cl)c(NC(=O)N(C)c2cc(Nc3ccc(OCCN4CCCC4)cc3)ncn2)c1Cl` [Example 148, 3-(2,6-Dichloro-3,5-dimethoxy-phenyl)-1-methyl-1-{6-[4-(2-pyrrolidin-1-yl-ethoxy)-phenylamino]-pyrimidin-4-yl}-urea], the inhibition at 10 µM at KDR was in the range of 67 to 100%; on Tek it was 12 to 100%.

`COc1cc(NC(=O)Nc2cc(Nc3ccc(N4CCN(C)CC4)cc3)ncn2)c(Cl)c(OC)c1` [Example 40, 1-(2-Chloro-3,5-dimethoxy-phenyl)-3-{6-[4-(4-methyl-Piperazin-1-yl)-phenyl-amino]-pyrimidin-4-yl}-urea]: the results for the inhibition at 10 µM on KDR and at Tek were 67 to 100% and 12 to 100%, respectively.

`COc1ccc(NC(=O)Nc2cc(Nc3cccc(N4CCN(C)CC4)c3)ncn2)cc1Cl` [Example 25, 1-(3-Chloro-4-methoxy-phenyl)-3-{6-[3-(4-methyl-piperazin-1-yl)-phenyl-amino]-pyrimidin-4-yl}-urea]: the inhibition at 10 µM was 67 to 100% at KDR, 27 to 100% on FGFR3 (K650E) and 12 to 100% on Tek.

Turning to `CN(C)c1cccc(Nc2cc(NC(=O)Nc3c(Cl)cccc3Cl)ncn2)c1` [Example 119, 1-(2,6-Dichloro-phenyl)-3-[6-(3-dimethylamino-phenylamino)-pyrimidin-4-yl]-urea], the inhibition at 10 µM at KDR fell in the range of 67 to 100%; on FGFR3 (K650E) it was 27 to 100%; at Tek, 12 to 100%.

For `O=C(Nc1cc(Nc2ccc(OCCN3CCOCC3)cc2)ncn1)Nc1ccccc1Br` [Example 97, 1-(2-Bromo-phenyl)-3-{6-[4-(2-morpholin-4-yl-ethoxy)-phenylamino]-pyrimidin-4-yl}-urea], the inhibition at 10 µM on KDR lay in the range of 67 to 100%; at FGFR3 (K650E), 27 to 100%; on Tek, 12 to 100%.

For the compound `CCN(CC)CCCOc1ccc(N(C(=O)Nc2ccccc2Cl)c2cc(N)ncn2)cc1` [Example 95, 1-(6-Amino-pyrimidin-4-yl}-3-(2-chloro-phenyl)-1-[4-(3-diethylamino-propoxy)-phenyl]-urea], the inhibition at 10 µM on KDR lay in the range of 67 to 100%; at FGFR3 (K650E), 27 to 100%; on Tek, 12 to 100%.

`COc1cc(NC(=O)Nc2cc(Nc3ccccc3)ncn2)c(Cl)c(OC)c1` [Example 39, 1-(2-Chloro-3,5-dimethoxy-phenyl)-3-(6-phenylamino-pyrimidin-4-yl)-urea]: the inhibition at 10 µM on KDR lay within 67 to 100%; on FGFR3 (K650E), 27 to 100%; at Tek, 12 to 100%.

With `COc1ccc(Cl)c(NC(=O)Nc2cc(Nc3ccc(N4CCN(C)CC4)cc3)ncn2)c1` [Example 28, 1-(2-Chloro-5-methoxy-phenyl)-3-{6-[4-(4-methyl-piperazin-1-yl)-phenyl-amino]-pyrimidin-4-yl}-urea], the inhibition at 10 µM fell in the range of 67 to 100% at KDR and 12 to 100% at Tek.

For the compound `COc1cc(OC)c(Cl)c(NC(=O)N(C)c2cc(Nc3ccc(CCCN(C)C)cc3)ncn2)c1Cl` [Example 147, 3-(2,6-Dichloro-3,5-dimethoxy-phenyl)-1-{6-[4-(3-dimethylamino-propyl)-phenylamino]-pyrimidin-4-yl}-1-methyl-urea], the inhibition at 10 µM at KDR was in the range of 67 to 100%; on Tek it was 12 to 100%.

For `COc1cc(NC(=O)N(C)c2cc(Nc3ccc(N4CCN(C)CC4)cc3)ncn2)cc(OC)c1` [Example 47, 3-(3,5-Dimethoxy-phenyl)-1-methyl-1-{6-[4-(4-methyl-piperazin-1-yl)-phenylamino]-pyrimidin-4-yl}-urea], the inhibition at 10 µM on KDR was in the range of 67 to 100%; at Tek, 12 to 100%.

For the compound `COc1cc(OC)c(Cl)c(NC(=O)N(C)c2cc(Nc3cccc(CN(C)C)c3)ncn2)c1Cl` [Example 144, 3-(2,6-Dichloro-3,5-dimethoxy-phenyl)-1-[6-(3-dimethylaminomethyl-phenylamino)-pyrimidin-4-yl]-1-methyl-urea], the inhibition at 10 µM at KDR lay within 67 to 100%; at Tek, 12 to 100%.

For `COc1ccc(Cl)c(NC(=O)Nc2cc(Nc3ccc(N4CCN(C)CC4)cc3)ncn2)c1Cl` [Example 36, 1-(2,6-Dichloro-3-methoxy-phenyl)-3-{6-[4-(4-methyl-piperazin-1-yl)-phenyl-amino]-pyrimidin-4-yl}-urea], the inhibition at 10 µM was 67 to 100% on KDR and 12 to 100% on Tek.

Regarding `COc1cc(OC)c(Cl)c(NC(=O)N(C)c2cc(Nc3cccc(N4CCN(C)CC4)c3)ncn2)c1Cl` [Example 3, 3-(2,6-Dichloro-3,5-dimethoxy-phenyl)-1-methyl-1-{6-[3-(4-methyl-piperazin-1-yl)-phenylamino]-pyrimidin-4-yl}-urea], the inhibition at 10 µM on KDR is 67 to 100%; at Tek, 12 to 100%.

As to `COc1cc(NC(=O)N(C)c2cc(Nc3ccc(N4CCN(C)CC4)cc3)ncn2)c(Cl)c(OC)c1` [Example 50, 3-(2-Chloro-3,5-dimethoxy-phenyl)-1-methyl-1-{6-[4-(4-methyl-piperazin-1-yl)-phenylamino]-pyrimidin-4-yl}-urea], the inhibition at 10 µM at KDR lay within 67 to 100%; on Tek, 12 to 100%.

Take `CCN(C(=O)Nc1cc(OC)cc(OC)c1Cl)c1cc(Nc2ccc(N3CCN(C)CC3)cc2)ncn1` [Example 55, 3-(2-Chloro-3,5-dimethoxy-phenyl)-1-ethyl-1-{6-[4-(4-methyl-piperazin-1-yl)-phenylamino]-pyrimidin-4-yl}-urea]: the inhibition at 10 µM at KDR is 67 to 100%; at Tek, 12 to 100%.
